Assay results taken from US20250296938A1, “Compounds that Interact with the Ras Superfamily for the Treatment of Cancers, Inflammatory Diseases, Rasopathies, and Fibrotic Disease” (SHY Therapeutics, LLC, priority 2018, published 2025).
Where two headings read alike, the source gives them in different places.

Legend:
Assay in all cases: Ras GTP binding domain inhibition assay (Cy3-GTP/Cy5-GTP competition)
KRas G12D mutant = biological target: T1, KRas G12D mutant (Homo sapiens, UniProt P01116, G12D); settings: at 20 μM
T1 construct: fused on or other part: His tag, used for capture on nickel-coated plates
Outline: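 Ni-plate immobilised His-Ras, overnight 4 °C; cpd 20 μM (or dilution series for IC50), 1% DMSO, 3 h RT; optional His-Sos […] last hour; Cy3- or Cy5-GTP 100 nM, 45 min RT; 3× wash; bound fluorescence read.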

Rac-1 = Rac-1 (Homo sapiens, UniProt P63000)
Outline: (§1)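 First, His-tagged protein is coated on nickel wells overnight at 4 °C. Next, compound (20 μM single point or serial dilution) is added for 3 h at room temperature, with or without Sos exchange factor in the last hour. Finally, 100 nM labelled GTP binds for 45 min and retained signal is measured.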

Rho-A = Rho-A (Homo sapiens, UniProt P61586)
Outline: as §1

[1] = with SOS, read-out: KRas G12D mutant + SOS: % inh.
[2] = without SOS, read-out: KRas G12D mutant: % inh.
[3] = with SOS, read-out: Rac-1 + SOS: % inh.
[4] = without SOS, read-out: Rac-1: % inh.
[5] = with SOS, read-out: Rho-A + SOS: % inh.
[6] = without SOS, read-out: Rho-A: % inh.

| Compound | inhibition at 20 µM (KRas G12D mutant; [1]) [%] | inhibition at 20 µM (KRas G12D mutant; [2]) [%] | inhibition at 20 µM (Rac-1; [3]) [%] | inhibition at 20 µM (Rac-1; [4]) [%] | inhibition at 20 µM (Rho-A; [5]) [%] | inhibition at 20 µM (Rho-A; [6]) [%] | KRas G12D mutant + SOS: % inh. (KRas G12D mutant; with SOS) | KRas G12D mutant: % inh. (KRas G12D mutant; without SOS) | Rac-1 + SOS: % inh. (Rac-1; at 20 μM, with SOS) | Rac-1: % inh. (Rac-1; at 20 μM, without SOS) | Rho-A + SOS: % inh. (Rho-A; at 20 μM, with SOS) | Rho-A: % inh. (Rho-A; at 20 μM, without SOS) |
| --- | --- | --- | --- | --- | --- | --- | --- | --- | --- | --- | --- | --- |
| COc1c(O)nc(-c2ccccn2)nc1Nc1ccccc1 [drawing 1015] | 26 to 50 | 26 to 50 | 51 to 75 | 51 to 75 | 51 to 75 | 51 to 75 |  |  |  |  |  |  |
| CCn1cc(Nc2nc(-c3ccccn3)nc(O)c2OC)cn1 [drawing 1016] | 26 to 50 | 26 to 50 | 76 to 100 | 51 to 75 | 51 to 75 | 51 to 75 |  |  |  |  |  |  |
| CCOc1cccc(Nc2nc(-c3ccccn3)nc(O)c2OC)c1 [drawing 1017] | 26 to 50 | 51 to 75 | 76 to 100 | 76 to 100 | 51 to 75 | 51 to 75 |  |  |  |  |  |  |
| COc1c(F)cccc1-c1sc2nc(-c3nccn3C)nc(NC3CCC(OC)C3)c2c1-c1ccccc1 (stereo not drawn) [drawing 1021] | 1 to 25 | 1 to 25 | 51 to 75 | 26 to 50 | 26 to 50 | 26 to 50 |  |  |  |  |  |  |
| COc1cccc(-c2sc3nc(-c4nccn4C)nc(N4CCC(OC)C4)c3c2-c2ccccc2)c1F (stereo not drawn) [drawing 1025] |  |  |  |  |  |  | C (51-75% inhibition) | A (1-25% inhibition) | B (26-50% inhibition) | B (26-50% inhibition) | B (26-50% inhibition) | B (26-50% inhibition) |
| COc1cccc(-c2sc3nc(-c4nccn4C)nc(N[C@H]4C[C@@H](OC)C4)c3c2-c2ccccc2)c1F [drawing 1026] | 51 to 75 | 26 to 50 | 51 to 75 | 51 to 75 | 51 to 75 | 51 to 75 |  |  |  |  |  |  |
| CO[C@H]1C[C@@H](Nc2nc(-c3nccn3C)nc3sc(-c4cnn(C)c4)c(-c4ccccc4)c23)C1 [drawing 1027] | 76 to 100 | 51 to 75 | 76 to 100 | 76 to 100 | 76 to 100 | 76 to 100 |  |  |  |  |  |  |
| COc1cccc(-c2sc3nc(-c4nccn4C)nc(NC4CCC(OC)C4)c3c2C)c1F (stereo not drawn) [drawing 1028] | 51 to 75 | 76 to 100 | 51 to 75 | 51 to 75 | 76 to 100 | 76 to 100 |  |  |  |  |  |  |
| COC1CCC(Nc2nc(-c3nccn3C)nc3sc(-c4cccc5[nH]ncc45)c(C)c23)C1 (stereo not drawn) [drawing 1030] | 51 to 75 | 26 to 50 | 51 to 75 | 51 to 75 | 26 to 50 | 51 to 75 |  |  |  |  |  |  |
| COCCn1ccnc1-c1nc(O)c2scc(-c3ccc(OCC(C)C)nc3)c2n1 [drawing 1033] | 51 to 75 | 51 to 75 | 76 to 100 | 76 to 100 | 76 to 100 | 76 to 100 |  |  |  |  |  |  |
| CC(C)COc1ccc(-c2csc3c(O)nc(-c4nccn4Cc4ccccn4)nc23)cn1 [drawing 1034] | 51 to 75 | 76 to 100 | 76 to 100 | 76 to 100 | 76 to 100 | 76 to 100 |  |  |  |  |  |  |
| COc1cccc(Cn2ccnc2-c2nc(O)c3scc(-c4ccc(OCC(C)C)nc4)c3n2)c1 [drawing 1035] | 51 to 75 | 51 to 75 | 76 to 100 | 76 to 100 | 51 to 75 | 76 to 100 |  |  |  |  |  |  |
| CO[C@H]1CC[C@@H](Nc2nc(-c3nccn3C)nc(C(=O)N3CCc4c(O)cccc4C3)c2C)C1 [drawing 1036] | 26 to 50 | 26 to 50 | 51 to 75 | 51 to 75 | 76 to 100 | 51 to 75 |  |  |  |  |  |  |
| Cn1ccc(-c2sc3nc(-c4nccn4C)nc(O)c3c2-c2ccccc2)n1 [drawing 1039] | 26 to 50 | 26 to 50 | 26 to 50 | 26 to 50 | 26 to 50 | 26 to 50 |  |  |  |  |  |  |
| CO[C@H]1C[C@@H](Nc2nc(-c3ncc[nH]3)nc3sc(-c4ccn(C)n4)c(-c4ccccc4)c23)C1 [drawing 1045] | 26 to 50 | 26 to 50 | 26 to 50 | 26 to 50 | 26 to 50 | 26 to 50 |  |  |  |  |  |  |
| CO[C@H]1CC[C@@H](Nc2nc(-c3ncc[nH]3)nc3sc(-c4ccn(C)n4)c(-c4ccccc4)c23)C1 [drawing 1046] | 51 to 75 | 26 to 50 | 51 to 75 | 51 to 75 | 26 to 50 | 51 to 75 |  |  |  |  |  |  |
| CO[C@H]1CC[C@@H](Nc2nc(-c3nccn3C)nc3sc(-c4ccn(C(C)C)n4)c(-c4ccccc4)c23)C1 [drawing 1047] | 51 to 75 | 51 to 75 | 51 to 75 | 51 to 75 | 76 to 100 | 76 to 100 |  |  |  |  |  |  |
| COc1nc(-c2ccccn2)nc2c(-c3ccccn3)csc12 [drawing 1048] | 1 to 25 | 26 to 50 | 26 to 50 | 26 to 50 | 26 to 50 | 26 to 50 |  |  |  |  |  |  |
| CO[C@H]1C[C@@H](Nc2nc(-c3nccn3C)nc3sc(-c4ccn(C)n4)c(C)c23)C1 [drawing 1049] | 51 to 75 | 51 to 75 | 51 to 75 | 51 to 75 | 76 to 100 | 76 to 100 |  |  |  |  |  |  |
| CO[C@H]1CC[C@@H](Nc2nc(-c3nccn3C)nc3sc(-c4ccn(C)n4)c(C)c23)C1 [drawing 1050] | 51 to 75 | 26 to 50 | 76 to 100 | 76 to 100 | 76 to 100 | 76 to 100 |  |  |  |  |  |  |
| Cc1c(-c2ccn(C)n2)sc2nc(-c3nccn3C)nc(NCCCS(C)(=O)=O)c12 [drawing 1051] | 76 to 100 | 76 to 100 | 51 to 75 | 76 to 100 | 51 to 75 | 51 to 75 |  |  |  |  |  |  |
| Cc1c(-c2ccn(C)n2)sc2nc(-c3nccn3C)nc(NCCCC(=O)N(C)C)c12 [drawing 1052] | 76 to 100 | 51 to 75 | 76 to 100 | 76 to 100 | 76 to 100 | 76 to 100 |  |  |  |  |  |  |
| Cc1c(-c2ccn(C)n2)sc2nc(-c3nccn3C)nc(NCCOC(=O)N(C)C)c12 [drawing 1053] | 76 to 100 | 76 to 100 | 51 to 75 | 76 to 100 | 51 to 75 | 76 to 100 |  |  |  |  |  |  |
| CO[C@H]1C[C@@H](Nc2nc(-c3nccn3C)nc3sc(C(=O)NC(C)C)c(-c4ccccc4)c23)C1 [drawing 1055] | 51 to 75 | 51 to 75 | 76 to 100 | 76 to 100 | 51 to 75 | 51 to 75 |  |  |  |  |  |  |
| COCCNC(=O)c1sc2nc(-c3nccn3C)nc(N[C@H]3C[C@@H](OC)C3)c2c1-c1ccccc1 [drawing 1056] | 51 to 75 | 51 to 75 | 76 to 100 | 51 to 75 | 51 to 75 | 51 to 75 |  |  |  |  |  |  |
| CO[C@H]1C[C@@H](Nc2nc(-c3nccn3C)nc3sc(C(=O)N4CCOCC4)c(-c4ccccc4)c23)C1 [drawing 1057] | 51 to 75 | 51 to 75 | 76 to 100 | 51 to 75 | 51 to 75 | 51 to 75 |  |  |  |  |  |  |
| COC1CCN(C(=O)c2sc3nc(-c4nccn4C)nc(N[C@H]4C[C@@H](OC)C4)c3c2-c2ccccc2)C1 (stereo partly drawn) [drawing 1058] | 51 to 75 | 51 to 75 | 51 to 75 | 76 to 100 | 76 to 100 | 26 to 50 |  |  |  |  |  |  |
| CO[C@H]1CC[C@@H](Nc2nc(-c3nccn3C)nc3sc(C(=O)NC(C)C)c(-c4ccccc4)c23)C1 [drawing 1059] | 76 to 100 | 76 to 100 | 76 to 100 | 76 to 100 | 76 to 100 | 76 to 100 |  |  |  |  |  |  |
| COCCNC(=O)c1sc2nc(-c3nccn3C)nc(N[C@@H]3CC[C@H](OC)C3)c2c1-c1ccccc1 [drawing 1060] | 76 to 100 | 76 to 100 | 76 to 100 | 76 to 100 | 76 to 100 | 76 to 100 |  |  |  |  |  |  |
| CO[C@H]1CC[C@@H](Nc2nc(-c3nccn3C)nc3sc(C(=O)N4CCCC4)c(-c4ccccc4)c23)C1 [drawing 1061] | 51 to 75 | 51 to 75 | 76 to 100 | 76 to 100 | 76 to 100 | 76 to 100 |  |  |  |  |  |  |
